Type in all cases: cell-based
The target of one assay is T1, AR in VCaP cells (Homo sapiens, UniProt P10275).
T1 construct: Assay on Degradation Activity for AR in VCaP Cells; endogenous in cells; host or cells: VCaP cells
T1 sequence (P10275 1-920): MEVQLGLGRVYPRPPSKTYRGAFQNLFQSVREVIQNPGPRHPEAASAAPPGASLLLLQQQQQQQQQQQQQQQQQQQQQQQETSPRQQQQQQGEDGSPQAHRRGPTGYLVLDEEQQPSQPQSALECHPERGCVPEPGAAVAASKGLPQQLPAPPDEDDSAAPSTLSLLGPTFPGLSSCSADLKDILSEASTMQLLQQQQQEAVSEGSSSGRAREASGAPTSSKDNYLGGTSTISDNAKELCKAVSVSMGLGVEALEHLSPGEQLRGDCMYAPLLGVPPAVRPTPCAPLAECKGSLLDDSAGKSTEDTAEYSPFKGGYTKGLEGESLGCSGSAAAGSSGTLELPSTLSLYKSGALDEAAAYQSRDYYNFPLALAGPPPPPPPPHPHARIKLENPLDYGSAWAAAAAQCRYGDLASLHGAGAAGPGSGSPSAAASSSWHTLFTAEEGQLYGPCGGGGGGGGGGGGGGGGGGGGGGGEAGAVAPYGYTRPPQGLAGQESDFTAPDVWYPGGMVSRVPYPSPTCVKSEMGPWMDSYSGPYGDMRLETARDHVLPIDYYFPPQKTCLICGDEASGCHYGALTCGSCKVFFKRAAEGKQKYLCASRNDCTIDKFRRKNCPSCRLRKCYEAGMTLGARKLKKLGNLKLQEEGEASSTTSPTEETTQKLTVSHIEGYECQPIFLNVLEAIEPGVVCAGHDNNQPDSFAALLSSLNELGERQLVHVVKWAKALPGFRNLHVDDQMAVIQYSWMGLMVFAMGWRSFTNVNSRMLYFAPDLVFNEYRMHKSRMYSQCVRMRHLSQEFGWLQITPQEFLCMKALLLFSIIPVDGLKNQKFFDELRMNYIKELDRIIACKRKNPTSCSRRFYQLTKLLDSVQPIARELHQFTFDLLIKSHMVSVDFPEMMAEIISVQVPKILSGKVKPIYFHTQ
Nature of the assay: Assay on degradation activity for AR in VCaP cells (HTRF human androgen receptor detection kit). Particulars: 24 h incubation. Here is the method: (§1) The detection was carried out using the HTRF HUMAN ANDROGEN RECEPTOR DETECTION KIT (cisbio, 64ANDRPEG), 4× Supplemented Lysis buffer was prepared using the Blocking reagent stock solution (100×) and Lysis buffer stock solution (4×), and 1× Supplemented Lysis buffer was prepared using the 4× Supplemented Lysis buffer and ddH2O. Premixed antibody solutions were prepared using Detection buffer, Androgen Receptor Eu Cryptate antibody, and Androgen Receptor d2 antibody.
(§2) VCaP cells in a good growth state were taken, washed with PBS, digested with pancreatin, and added with 2% CSS—FBS phenol red-free DMEM complete medium to terminate the digestion. The cells were collected by using a centrifuge tube, adjusted to a cell density of 1×10^6 cells/mL, and seeded in a 96-well plate (100 µL/well). The cells were incubated overnight in a cell incubator. Compounds were added using a nanoliter pipettor such that the final concentrations of the compounds were 1000 nM-0.977 nM. Two duplicate wells were set for each concentration, and meanwhile, a control was set. After another 24 h of incubation in the cell incubator, the medium was pipetted out, the 1× Supplemented Lysis buffer was added at 40 μL/well to lyse the cells. After the cells were oscillated for 40 min at room temperature, 16 μL of the cell lysate was added to a 384-well plate, the Premixed antibody solutions were added at 4 μL/well, and the mixture was left to stand at 25° C. for 2 h. Fluorescence values were detected at 665 nm/620 nm using an Envision microplate reader, the four-parameter analysis was performed, the dose-response curves were fit, and DC50 (the concentration of the drug when the degradation rate reaches 50%) and Dmax (the maximum degradation rate) were calculated.

In another assay the test system is LNCaP cells. As to the kind of experiment: Assay on inhibitory activity for LNCaP cell proliferation (CCK-8). Conditions: 168 h incubation. In short, it runs like this: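 Cells seeded at 1×10^5 cells/mL in phenol red-free 1640 with 2% CSS-FBS, treated at final 10000 nM-0.61 nM in duplicate. After 168 h incubation, viability read with CCK-8.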
A further assay concerns the target T2, AR in LNCaP cells (Homo sapiens, UniProt P10275, T878A).
T2 construct: Assay on Degradation Activity for AR in LNCaP Cells; endogenous in cells; host or cells: LNCaP cells
T2 sequence (P10275 1-920 T878A): T1 sequence (P10275 1-920) with T878A
Nature of the assay: Assay on degradation activity for AR in LNCaP cells (HTRF human androgen receptor detection kit). Conditions: 24 h incubation; for DC50: HTRF. Here is the method:
as §1
as §2, with “LNCaP” for “VCaP”, “1640” for “DMEM”, “μL/well).” for “µL/well).”, “500 nM-0.488” for “1000 nM-0.977”

The subject of a further assay is VCaP cells. As to the kind of experiment: Assay on inhibitory activity for VCaP cell proliferation (CCK-8). Particulars: 168 h incubation. In short, it runs like this: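 VCaP cells seeded at 1×10^5 cells/mL in phenol red-free DMEM with 5% charcoal-stripped FBS, treated in duplicate at 10000–0.61 nM final. After 168 h incubation, viability was read with CCK-8.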

Here are results for 14 compounds from US20260035384A1, “COMPOUND CONTAINING CYCLOHEXYL” (CHIA TAI TIANQING PHARMACEUTICAL GROUP CO., LTD., priority 2022, published 2026).

Substitutions are numbered along the chain they refer to.

As usually defined, the DC50 is the concentration giving 50% degradation. Read a high DC50 as degradation only at high concentration. In general, IC50 refers to the concentration that gives 50% inhibition. The low end stands for inhibition by little substance, the high end for a need for much substance. A word on the Dmax: it is the greatest extent of degradation seen. A low value points to shallow degradation. Regarding `N#Cc1ccc(O[C@H]2CC[C@H](NC(=O)c3ccc(N4CCC5(CC4)CC(CN4CCc6c(ccc7c(C8CCC(=O)NC8=O)noc67)C4)C5)nn3)CC2)cc1Cl` (stereo partly drawn) [Compound 36], the DC50 on AR in VCaP cells was not above 1 nM; on AR in LNCaP cells, not above 20 nM. Moreover, the concentration for half-maximal inhibition (IC50) is less than 1000 nM in the assay on LNCaP cells (Homo sapiens) and less than 10 nM in the assay with VCaP cells (Homo sapiens). Moreover, the greatest degradation seen (Dmax) at AR in LNCaP cells (maximum degradation rate) was more than 80%.

On to `N#Cc1ccc(O[C@H]2CC[C@H](NC(=O)c3ccc(N4CCC5(CC4)CC(CN4CCc6ccc7c(C8CCC(=O)NC8=O)noc7c6CC4)C5)nn3)CC2)cc1Cl` (stereo partly drawn) [Compound 37], for which the DC50 on AR in VCaP cells was not above 1 nM; on AR in LNCaP cells, not above 20 nM. The 50% inhibitory concentration (IC50) with LNCaP cells (Homo sapiens) is less than 1000 nM; in the assay on VCaP cells (Homo sapiens), less than 100 nM. The Dmax on AR in LNCaP cells (maximum degradation rate) is more than 80%.

Turning to `N#Cc1ccc(O[C@H]2CC[C@H](NC(=O)c3ccc(N4CCC(N5CC(CN6CCc7ccc8c(C9CCC(=O)NC9=O)noc8c7C6)C5)CC4)nn3)CC2)cc1Cl` (stereo partly drawn) [Compound 91], the DC50 on AR in VCaP cells was not above 1 nM; on AR in LNCaP cells, not above 20 nM. For the same compound, the IC50 in the assay with LNCaP cells (Homo sapiens) was less than 1000 nM; with VCaP cells (Homo sapiens, VCaP, 168 h), less than 10 nM. Moreover, the Dmax at AR in LNCaP cells (maximum degradation rate) is more than 80%.

In the case of `N#Cc1ccc(O[C@H]2CC[C@H](NC(=O)c3ccc(N4CCC(N5CC(CN6CCc7c(ccc8c(C9CCC(=O)NC9=O)noc78)C6)C5)CC4)nn3)CC2)cc1Cl` (stereo partly drawn) [Compound 92], the DC50 at AR in VCaP cells is not above 1 nM. Further, the half-inhibitory concentration (IC50) with LNCaP cells (Homo sapiens) is less than 1000 nM; in the assay with VCaP cells (Homo sapiens, VCaP, 168 h) it was less than 10 nM.

In the case of `N#Cc1ccc(O[C@H]2CC[C@H](NC(=O)c3ccc(N4CCC(N5CC(N6CCc7ccc8c(C9CCC(=O)NC9=O)noc8c7CC6)C5)CC4)nn3)CC2)cc1Cl` (stereo partly drawn) [Compound 95], at AR in VCaP cells, the DC50 was not above 1 nM. The concentration for half-maximal inhibition (IC50) in the assay on LNCaP cells (Homo sapiens) was less than 1000 nM; in the assay with VCaP cells (Homo sapiens) it was less than 100 nM.

At AR in VCaP cells, `N#Cc1ccc(O[C@H]2CC[C@H](NC(=O)c3ccc(N4CCC(N5CC(N6Cc7ccc8c(C9CCC(=O)NC9=O)coc8c7C6)C5)CC4)nn3)CC2)cc1Cl` (stereo partly drawn) [Compound 96] registered a 50% degradation concentration (DC50) not above 1 nM. The half-inhibitory concentration (IC50) was less than 1000 nM in the assay on LNCaP cells (Homo sapiens) and less than 10 nM in the assay on VCaP cells (Homo sapiens, VCaP, 168 h).

For the compound `N#Cc1ccc(O[C@H]2CC[C@H](NC(=O)c3ccc(N4CCC(N5CC(CN6Cc7ccc8c(C9CCC(=O)NC9=O)coc8c7C6)C5)CC4)nn3)CC2)cc1Cl` (stereo partly drawn) [Compound 98], the DC50 on AR in VCaP cells is not above 1 nM; at AR in LNCaP cells it was not above 20 nM. Also, the half-maximal inhibitory concentration (IC50) is less than 1000 nM with LNCaP cells (Homo sapiens) and less than 100 nM in the assay with VCaP cells (Homo sapiens, VCaP, 168 h). Also, on AR in LNCaP cells (maximum degradation rate), the Dmax was more than 80%.

For the compound `N#Cc1ccc(O[C@H]2CC[C@H](NC(=O)c3ccc(N4CCC(CN5CC(CN6Cc7cc8onc(C9CCC(=O)NC9=O)c8cc7C6)C5)CC4)nn3)CC2)cc1Cl` (stereo partly drawn) [Compound 102], the figures for the DC50 on AR in VCaP cells and on AR in LNCaP cells were not above 1 nM and not above 20 nM, respectively. The IC50 with LNCaP cells (Homo sapiens) was less than 1000 nM; in the assay with VCaP cells (Homo sapiens, VCaP, 168 h), less than 10 nM. This compound gave a maximal degradation (Dmax) at AR in LNCaP cells (maximum degradation rate) of more than 80%.

`N#Cc1ccc(O[C@H]2CC[C@H](NC(=O)c3ccc(N4CCN(C5CN(CC6Cc7ccc8c(C9CCC(=O)NC9=O)coc8c7C6)C5)CC4)nn3)CC2)cc1Cl` (stereo partly drawn) [Compound 107]: the figures for the half-maximal degradation concentration (DC50) on AR in VCaP cells and on AR in LNCaP cells were not above 1 nM and not above 20 nM, respectively. In addition, the IC50 with LNCaP cells (Homo sapiens) is less than 1000 nM; with VCaP cells (Homo sapiens, VCaP, 168 h), less than 10 nM. This compound yielded a Dmax on AR in LNCaP cells (maximum degradation rate) of more than 80%.

Turning to `N#Cc1ccc(O[C@H]2CC[C@H](NC(=O)c3ccc(N4CCN(C5CN(CC6Cc7ccc8c(C9CCC(=O)NC9=O)coc8c7C6)C5)CC4)nn3)CC2)cc1Cl` (stereo partly drawn) [Compound 108], the DC50 on AR in VCaP cells is not above 1 nM. The values for the IC50 in the assay with LNCaP cells and with VCaP cells were less than 1000 nM and less than 10 nM, respectively.

As for `N#Cc1ccc(O[C@H]2CC[C@H](NC(=O)c3cnc(N4CCN(C5CN(CC6Cc7ccc8c(C9CCC(=O)NC9=O)coc8c7C6)C5)CC4)nc3)CC2)cc1Cl` (stereo partly drawn) [Compound 109], the values for the DC50 at AR in VCaP cells and on AR in LNCaP cells were not above 1 nM and not above 20 nM, respectively. The IC50 with LNCaP cells (Homo sapiens) is less than 1000 nM; in the assay with VCaP cells (Homo sapiens, VCaP, 168 h), less than 100 nM. The Dmax on AR in LNCaP cells (maximum degradation rate) is more than 80%.

For the compound `N#Cc1ccc(O[C@H]2CC[C@H](NC(=O)c3cnc(N4CCN(C5CN(CC6Cc7ccc8c(C9CCC(=O)NC9=O)coc8c7C6)C5)CC4)nc3)CC2)cc1Cl` (stereo partly drawn) [Compound 110], the DC50 is not above 1 nM on AR in VCaP cells and not above 20 nM at AR in LNCaP cells. The half-inhibitory concentration (IC50) was less than 1000 nM with LNCaP cells and less than 100 nM in the assay on VCaP cells. For the same compound, on AR in LNCaP cells (maximum degradation rate), the “Degradation activity for AR in LNCaP cells (Dmax, %)” value is more than 80%.

In turn, `CN(c1ccc(C#N)c(Cl)c1)[C@H]1CC[C@H](NC(=O)c2ccc(N3CC(CN4CCc5c(ccc6c(C7CCC(=O)NC7=O)noc56)C4)C3)cc2)CC1` (stereo partly drawn) [Compound 113] returned a DC50 at AR in VCaP cells not above 1 nM. For the same compound, the values for the IC50 with LNCaP cells (Homo sapiens) and with VCaP cells (Homo sapiens) were less than 1000 nM and less than 100 nM, respectively.

As to `CN(c1ccc(C#N)c(Cl)c1)[C@H]1CC[C@H](NC(=O)c2cnc(N3CCC(CN4CCc5c(ccc6c(C7CCC(=O)NC7=O)noc56)C4)CC3)nc2)CC1` (stereo partly drawn) [Compound 117], the DC50 is not above 1 nM on AR in VCaP cells and not above 20 nM on AR in LNCaP cells. The IC50 in the assay with LNCaP cells (Homo sapiens) is less than 1000 nM; with VCaP cells (Homo sapiens), less than 100 nM. Also, the Dmax on AR in LNCaP cells (maximum degradation rate) is more than 80%.
